Reference: US20220362275A1, “Method and Compositions for Treating Glioblastoma” (PHOENIX BIOTECHNOLOGY, INC., priority 2019, published 2022)
Entries after “also recorded” stand apart in the source; their conditions may differ. Where two headings read alike, the source gives them in different places.

Tests used:
GBM [1] = conditions: cited from earlier work
[2] = cited from earlier work
GS28 stem cell line = assay: High throughput growth/viability assay (Cell Titer Glo-3D), GS28; assay type: cell-based; conditions: FIG. 17D
Description: (§1) A total of 500 GBM9 cells or 1,000 GS28 cells per well suspended in 50 ul of media are seeded into Greiner Black 384-well plates (Cat #781091) using Multidrop Combi liquid dispenser (ThermoFisher).
(§2) The cells are allowed to recover and form a monolayer overnight at 37 C in a humidified chamber with 5% CO2.
(§3) After recovery, 50 nl of each drug are transferred into well using an Echo 550 acoustic dispensing platform (Labcyte).
(§4) In the combination screen, two or three drugs are tested with a fixed volume of DMSO ([…]) and two biological replicates. Each assay plate contains a fixed concentration of drug in addition to a negative control (0.1% DMSO), a positive control (10 uM Doxorubicin), and an 8-point dose response curve of the positive controls. Each well image is taken using the ImageXpress Micro Conforcal High Content Imaging System (MolecularDevices) everyday four times.
(§5) After 72 hr incubation in the presence of drug, plates are aspirated for left 25 ul and then, 25 ul of Cell Titer Glo-3D (Promega) are added and incubated for 20 minutes. Assay plates are read on the Synergy Neo2 Hybrid Multi-Mode Microplate Reader (BioTek).

GBM9 stem cell line = assay: High throughput growth/viability assay (Cell Titer Glo-3D), GBM9; assay type: cell-based; conditions: FIG. 17E
Description: as §1, §2, §3, §4, §5

[3] = Oral bioavailability anticipated from human clinical data; conditions: in vivo, based on human clinical data, read-out: part of an administered dose orally bioavailable
GBM [4] = conditions: addition to standard treatment; cited from earlier work
[5] = test system: caspase 3, 8 and 9 in human GBM U87MG, U251 and T98 cells; assay: Caspase 3, 8 and 9 enzymatic activity (chromogenic substrates); assay type: cell-based; conditions: pan-caspase inhibitor added
Description: For cell cycle analysis, cells (2.5×10^6) grown in 100-mm dishes were treated with PBI-05204 (0.5-2.5 μg/ml) for 24 hr. Cells were subjected to trypsinization and centrifugation, and the pellets were suspended and washed in 1× phosphate-buffered saline solution (PBS) and were fixed overnight in 70% ethanol at 4° C. The cells were then washed with 1×PBS and were suspended in PBTB staining solution containing PBS, 0.5% bovine serum albumin (BSA), 0.005% Tween-20, propidium iodide (10 μg/ml) and DNase-free RNase (1 μg/ml). Cells were incubated in the dark for 30 min at 37° C. before fluorescence-activated cell-sorting (FACS) analysis using a BD FACS Caliber flow cytometer (BD Biosciences, San Jose, Calif.). The percentage of cells in each phase of the cell cycle was estimated from the DNA histogram content. Apoptosis was evaluated by APOSTRAND™ ELISA apoptosis detection kit (3V Chimica S.r.l. Rome, Italy) and by caspase-specific chromogenic substrates at 450 nm in an ELISA plate reader such as Ac-DEVD-pNA (caspase-3), Ac-IETD-pNA (caspase 8) and Ac-LEHD-pNA (caspase 9) purchased from Kaneka Eurogentec SA (Seraing, Belgium).

[6] = all concentrations ranging from 1×10^−4.5 to 1×10^−7 M

Question: What does the source list for `Cn1nnc2c(C(N)=O)ncn2c1=O` [TMZ, temozolomide]?
Answer: grade ≥3 toxicity (GBM [1]; ddTMZ arm): 53%; grade ≥3 toxicity (GBM [1]; sdTMZ arm): 34%; entry into the cerebrospinal fluid ([2]; in vivo): readily enters; pharmacokinetics ([2]; in vivo): linear; bioavailability ([2]; oral): excellent

Question: Which results are given for `C[C@H]1[C@H](C)CC[C@]2(C(=O)O)CC[C@]3(C)C(=CC[C@@H]4[C@@]5(C)CC[C@H](O)C(C)(C)[C@@H]5CC[C@]43C)[C@H]12` [Ursolic acid, ursolic acid]?
Answer: activity at concentrations below about 5.6 microM (GS28 stem cell line): little to no activity; activity at concentrations below about 10 microM (GBM9 stem cell line): little to no activity

Question: For `CO[C@H]1C[C@H](O[C@H]2CC[C@@]3(C)[C@H](CC[C@@H]4[C@@H]3CC[C@]3(C)[C@@H](C5=CC(=O)OC5)[C@@H](OC(C)=O)C[C@]43O)C2)O[C@@H](C)[C@@H]1O` [oleandrin], which bioavailability [3] is on record?
Answer: The bioavailability was 50 to 75%.

Question: Which results are given for `CC1(C)CC[C@]2(C(=O)O)CC[C@]3(C)C(=CC[C@@H]4[C@@]5(C)CC[C@H](O)C(C)(C)[C@@H]5CC[C@]43C)[C@@H]2C1` [oleanolic acid]?
Answer: activity (inhibition of growth of GBM stem cells) (GS28 stem cell line; [6]): very poor activity; activity (inhibition of growth of GBM stem cells) (GBM9 stem cell line; [6]): very poor activity; also recorded: little to no activity

Question: Which “overall survival (OS)” value (GBM [4]) does the source give for bevacizumab here?
Answer: Its value is “no increase”.

Question: And the “progression-free survival (PFS)” value (GBM [4])?
Answer: The value was “improved”.

Question: With z-VAD-fmk as the compound, how does the “PBI-05204 induced caspase 3 activity” value [5] read?
Answer: The value was “largely inhibited”.
